target: T1, Corticotropin-releasing factor-binding protein (Homo sapiens, UniProt P24387)
T1 sequence (P24387 whole entry): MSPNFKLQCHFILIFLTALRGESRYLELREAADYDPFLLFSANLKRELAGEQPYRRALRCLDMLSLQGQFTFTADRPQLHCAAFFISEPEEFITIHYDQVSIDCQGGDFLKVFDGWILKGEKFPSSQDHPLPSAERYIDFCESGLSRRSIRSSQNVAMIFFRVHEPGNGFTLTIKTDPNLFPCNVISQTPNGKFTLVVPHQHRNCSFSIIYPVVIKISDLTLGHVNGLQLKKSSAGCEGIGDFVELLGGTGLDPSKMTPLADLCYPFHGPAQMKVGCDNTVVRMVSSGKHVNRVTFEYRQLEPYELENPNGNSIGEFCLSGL

Row | SMILES | IC50
1 | N#CC(C(=O)COc1ccc(Cl)cc1)c1nc2ccccc2s1 (centres undefined) | > 20 µM
2 | O=C(O)c1ccc(CN=Nc2cccc(C(F)(F)F)c2)cc1 | > 20 µM
3 | Cc1ccc2nc(N3C(=O)C(=O)C(C(=O)c4ccco4)C3c3cccc(O)c3)sc2c1 (centres undefined) | > 20 µM
4 | Cc1cc(=O)oc2c1ccc1oc(C(N=O)c3ccccc3)c(C)c12 (centres undefined) [4,9-dimethyl-8-(N-oxidanyl-C-phenyl-carbonimidoyl)furo[2,3-h]chromen-2-one] | > 20 µM
5 | COC(=O)c1ccc(C(=O)C(C#N)c2nc3ccccc3s2)cc1 (centres undefined) [4-[(2Z)-2-(3H-1,3-benzothiazol-2-ylidene)-2-cyano-1-oxoethyl]benzoic acid methyl ester] | > 20 µM
6 | Cc1ccc2nc(N3C(=O)C(=O)C(C(=O)c4ccc(C)o4)C3c3cccc(O)c3)sc2c1 (centres undefined) [4-hydroxy-2-(3-hydroxyphenyl)-1-(6-methyl-1,3-benzothiazol-2-yl)-3-(5-methylfuran-2-carbonyl)-2H-pyrrol-5-one] | 10.4 µM
7 | N#CC(C(=O)Cc1cccc2ccccc12)c1nc2ccccc2s1 (centres undefined) [(2Z)-2-(3H-1,3-benzothiazol-2-ylidene)-4-naphthalen-1-yl-3-oxobutanenitrile] | 11.3 µM
8 | COc1ccc(/C=N/OCC(=O)NNC2=c3cc(Br)ccc3=NC2=O)cc1 [MLS000587830] | > 20 µM
9 | COc1ccc(C(C)N=Nc2ccc([N+](=O)[O-])cc2S(=O)(=O)Nc2ccccc2C(=O)O)c(OC)c1 (centres undefined) [MLS002249507] | 9.4 µM
10 | Cn1c(O)c(N=Nc2ccc([N+](=O)[O-])cc2)sc1=S [MLS002608645] | 1 µM
11 | CN1c2ccccc2C(=O)C(C(=S)Nc2ccc(Cl)cc2)S1(=O)=O (centres undefined) [N-(4-chlorophenyl)-4-hydroxy-1-methyl-2,2-dioxo-1,2-dihydro-2lambda~6~,1-benzothiazine-3-carbothioamide] | > 20 µM
12 | O=NCc1ccc(Oc2ccc(F)cc2)c([N+](=O)[O-])c1 [N-[[4-(4-fluorophenoxy)-3-nitrophenyl]methylidene]hydroxylamine] | 17.5 µM
13 | Cc1ccc(-n2[nH]c(C)c(CN=Nc3ccc([N+](=O)[O-])cc3[N+](=O)[O-])c2=O)cc1 [SMR000171521] | 15.5 µM
14 | Cc1ccc(S(=O)(=O)N(CC(=O)NNC2=c3ccccc3=NC2=O)c2ccc(C)c(C)c2)cc1 [SMR000207608] | > 20 µM
